Source: patent US20120077694A1, “TARGETS IN BREAST CANCER FOR PROGNOSIS OR THERAPY” (The Regents of the University of California, priority 2006, published 2012)

Each substance was assayed on HCC1954 and CAMA1 cells (assay: Cell growth in 3D culture after shRNA knockdown). Details: vs shRNA control.
Assay type: cell-based, human

Colony size / cell growth in 3D culture, colonies were much smaller:
#5149 shNEU3: NEU3 shRNA hairpin, SEQ ID NO: 182 (CCGGAGTGACAACATGCTCCTTCAACTCGAGTTGAAGGAGCATGTTGTCACTTTTTT)
#38160 shFGF3: FGF3 shRNA hairpin, SEQ ID NO: 190 (CCGGGAGCTGGGCTATAATACGTATCTCGAGATACGTATTATAGCCCAGCTCTTTTTG)
#2969 shPPFIA1: PPFIA1 shRNA hairpin, SEQ ID NO: 192 (CCGGGAGGAGATTGAAAGTCGAGTTCTCGAGAACTCGACTTTCAATCTCCTCTTTTT)
